Experimental data published in patent US10973819B2, “Small molecules inhibitors of RAD51” (The University of Chicago, priority 2016, dated 2021).
“Also recorded” adds a separate entry of the source. Where two headings read alike, the source gives them in different places.

Assays:
[1] = target: T1, RAD51 (Homo sapiens, UniProt Q06609); assay: Gel-based D-loop assay; type: biochemical; conditions: for D-Loops Max inhibition effect / IC50: Table 3; for IC50: read-out: D-Loops IC50; for D-loop inhibitory activity, in words: summary of Tables 2 and 3
T1 sequence (Q06609 1-339): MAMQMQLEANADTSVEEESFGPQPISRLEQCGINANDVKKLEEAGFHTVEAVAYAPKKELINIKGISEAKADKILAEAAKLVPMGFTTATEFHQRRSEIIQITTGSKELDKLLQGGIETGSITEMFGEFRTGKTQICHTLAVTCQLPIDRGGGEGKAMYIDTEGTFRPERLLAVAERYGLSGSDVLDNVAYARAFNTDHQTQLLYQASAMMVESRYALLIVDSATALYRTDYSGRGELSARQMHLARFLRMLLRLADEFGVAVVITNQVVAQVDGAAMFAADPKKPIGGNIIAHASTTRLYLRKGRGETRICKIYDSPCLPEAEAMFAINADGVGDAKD
Protocol: Human RAD51 in reaction buffer was combined with compound in […] DMSO, incubated at 37° C. for 10 min, and then 1 μl of 5′-^32P-labeled 90-mer ssDNA (5′-[…]) with homology to the plasmid pRS306 ^34 was added and the reaction was incubated at 37° C. for an additional 5 minutes. 1 μl of supercoiled pRS306 was then added to the reaction and incubated at 37° C. for 20 minutes; at this point the reaction consisted of 25 mM HEPES-NaOH (pH 7.0), 1 mM ATP, 1 mM MgCl2, 1 mM DTT, 1.5 μM BSA, 4.5% DMSO, 0.5 μM RAD51, 11 mM NaCl, 1% glycerol, 20 nM ssDNA, and 5 nM pRS306. The reactions were de-proteinized with 0.8% SDS and 0.8 mg/ml proteinase K, mixed with gel loading buffer, and run on a 0.9% agarose/1×TAE gel, which was dried and exposed to a phosphor screen overnight and imaged on a Storm 860 PhosphorImager. Compound IC50 values were obtained by least-squares regression fitting of appropriate linear, log, or sigmoid dose-response models to the data, with the standard error indicated.
To improve upon the D-loop inhibitory activity, medicinal chemical studies were undertaken to optimize 8. First, different functional groups were appended to rings A and B as substituents, including alkyl groups of different sizes, electron withdrawing/donating groups, and hydrogen bond donor/acceptor groups. Next, replacement of the phenyl ring B with different heterocycles or other saturated/unsaturated rings was investigated in order to probe its role. For each of the prepared compounds, the gel-based D-loop assay and the microplate-based DNA binding assay were used to characterize the biochemical activities.

[2] = target: T1, RAD51; assay: Fluorescence polarization-based DNA binding assay (RAD51-ssDNA binding); type: biochemical; conditions: for IC50 / Emax / ssDNA binding IC50: Table 3; for IC50 / ssDNA binding IC50: Stim = stimulator; for Emax: read-out: ssDNA binding Max effect; for influence on RAD51-ssDNA binding, in words: summary of Tables 2 and 3
Protocol: The fluorescence polarization-based DNA binding assay and purification of human RAD51 used for this assay was performed as previously described with a few modifications.^23 Reactions were carried out in black 384-well polystyrene plates. In each well, RAD51 protein was combined with reaction buffer and varying concentrations of compound in DMSO in an initial volume of 40 μl and incubated at 37° C. for 40 minutes. Then, 10 μl of reaction buffer containing fluorescently-labeled ssDNA substrate (5′-Alexa488-oligo-dT45) was added and the reaction incubated at 37° C. for another 40 minutes, after which the plate was read on a Tecan Infinite 200 Pro plate reader equipped with two sets of 485±25 nm/535±35 nm with parallel or perpendicularly-oriented polarization filters. In both steps of the reaction setup, buffer components were maintained at 20 mM HEPES-NaOH (pH 7.5), 2 mM ATP, 10 mM MgCl2, 0.1 mM TCEP-HCl (tris(2-carboxyethyl)phosphine), and 0.25 μM BSA. The final reaction contained 4% DMSO, 0.2 μM RAD51, 30 mM NaCl, 2% glycerol, and 2.22 nM ssDNA substrate. Compound IC50 values were obtained by least-squares regression fitting of appropriate linear, log, or sigmoid dose-response models to the data, with the standard error indicated. […]

[3] = cells marked ↓: compound inhibits RAD51-ssDNA binding
[4] = cells marked ↑: compound stimulates RAD51-ssDNA binding

D-Loops Max inhibition effect [1] [%]	IC50 [1] [µM]	IC50 [2] [µM]	Emax [2, 3] [%]	influence on RAD51-ssDNA binding, in words [2]	ssDNA binding IC50 [2]	Emax [2, 4] [%]	D-loop inhibitory activity, in words [1]	SMILES
				stimulators	Stim	105 ± 47		COc1ccc2c(c1)nc(-c1ccc([N+](=O)[O-])cc1)c1cccn12 [Compound 12b, 7-Methoxy-4-(4-nitrophenyl)pyrrolo[1,2-a]quinoxaline]
100 ± 4	13.2	> 100	29 ± 8	only weakly influenced				COc1ccc2c(c1)nc(-c1ccc(N)cc1)c1cccn12 [Compound 12c, 4-(7-Methoxypyrrolo[1,2-a]quinoxalin-4-yl)aniline]
	27.6 ± 4.9	> 100	72 ± 11					Oc1ccc(-c2nc3cc(O)ccc3n3cccc23)cc1 [Compound 12d, 4-(4-Hydroxyphenyl)pyrrolo[1,2-a]quinoxalin-7-ol]
		57.8 ± 3	92 ± 21					O=[N+]([O-])c1ccc(-c2nc3cc(O)ccc3n3cccc23)cc1 [Compound 12e, 4-(4-Nitrophenyl)pyrrolo[1,2-a]quinoxalin-7-ol]
	25 ± 5.1	81.5 ± 16.6	60 ± 18					Nc1ccc(-c2nc3cc(F)ccc3n3cccc23)cc1 [Compound 12i, 4-(7-Fluoropyrrolo[1,2-a]quinoxalin-4-yl)aniline]
					Stim	57 ± 28	nearly absent	CN(C)c1ccc(-c2nc3cc(F)ccc3n3cccc23)cc1 [Compound 12j, 4-(7-Fluoropyrrolo[1,2-a]quinoxalin-4-yl)-N,N-dimethylaniline]
	34 ± 2.9	> 100	42 ± 8					Nc1ccc(-c2nc3cc(F)c(F)cc3n3cccc23)cc1 [Compound 12l, 4-(7,8-Difluoropyrrolo[1,2-a]quinoxalin-4-yl)aniline]
					Stim	65 ± 22	nearly absent	CN(C)c1ccc(-c2nc3cc(F)c(F)cc3n3cccc23)cc1 [Compound 12m, 4-(7,8-Difluoropyrrolo[1,2-a]quinoxalin-4-yl)-N,N-dimethylaniline]
74 ± 5	38.6 ± 6.2		16 ± 28					COc1ccc2c(c1)nc(-c1cccnc1)c1cccn12 [Compound 13a, 7-Methoxy-4-(pyridin-3-yl)pyrrolo[1,2-a]quinoxaline]
53 ± 30			87 ± 10					Oc1ccc2c(c1)nc(-c1cccnc1)c1cccn12 [Compound 13b, 4-(Pyridin-3-yl)pyrrolo[1,2-a]quinoxalin-7-ol]
	46.1 ± 2.8			stimulators	Stim	117 ± 18		CCCOc1ccc2c(c1)nc(-c1ccc(N)cc1)c1cccn12 [Compound 15a, 4-(7-Propoxypyrrolo[1,2-a]quinoxalin-4-yl)aniline]
	> 100			stimulators	Stim	131 ± 28		CN(C)c1ccc(-c2nc3cc(OC(C)(C)C(N)=O)ccc3n3cccc23)cc1 [Compound 16, 2-((4-(4-(Dimethylamino)phenyl)pyrrolo[1,2-a]quinoxalin-7-yl)oxy)-2-methylpropanamide]

SMILES	D-Loops Max inhibition effect [1] [%]	IC50 [1] [µM]	IC50 [2] [µM]	Emax [2, 3] [%]	influence on RAD51-ssDNA binding, in words [2]	ssDNA binding IC50 [2]	Emax [2, 4] [%]	D-loop inhibitory activity, in words [1]
COc1ccc2c(c1)nc(-c1ccc(O)cc1)c1cccn12 [Compound 12a, 4-(7-Methoxypyrrolo[1,2-a]quinoxalin-4-yl)phenol]	13 ± 12	> 100	35 ± 14	100 ± 18	relatively strong ssDNA binding inhibition			
Nc1ccc(-c2nc3cc(OCCF)ccc3n3cccc23)cc1 [Compound 15b, 4-(7-(2-Fluoroethoxy)pyrrolo[1,2-a]quinoxalin-4-yl)aniline]		20 ± 4.1			stimulators; also recorded: modest effects	Stim	79 ± 23	
